In BindingDB's records for doi:10.1016/S1074-5521(02)00281-8 (Massachusetts Institute of Technology, 2002):
pKi: −log10 of the molar value. Starred links: 1 amine or outer side, 2 acyl side, 3 side chain; linkers in the order of their positions; H or OH if unused. Positions of bridges follow the written chain, without caps; N, C: chain ends. Non-standard residues stand in square brackets, D forms with d. Residues, ends and D or L forms follow the SMILES beside them. Chains are numbered I, II in the order given. Actinocin(9to1) = Cc1c2oc3c(C)ccc(C(=O)[*:1])c3nc-2c(C(=O)[*:2])c(N)c1=O; NMeV = CN[C@H](C(=O)O)C(C)C; Sar = CNCC(=O)O

Biological target: T1, Dolichyl-diphosphooligosaccharide--protein glycosyltransferase subunit 1 (Saccharomyces cerevisiae, UniProt P41543)
T1 sequence (P41543 whole entry): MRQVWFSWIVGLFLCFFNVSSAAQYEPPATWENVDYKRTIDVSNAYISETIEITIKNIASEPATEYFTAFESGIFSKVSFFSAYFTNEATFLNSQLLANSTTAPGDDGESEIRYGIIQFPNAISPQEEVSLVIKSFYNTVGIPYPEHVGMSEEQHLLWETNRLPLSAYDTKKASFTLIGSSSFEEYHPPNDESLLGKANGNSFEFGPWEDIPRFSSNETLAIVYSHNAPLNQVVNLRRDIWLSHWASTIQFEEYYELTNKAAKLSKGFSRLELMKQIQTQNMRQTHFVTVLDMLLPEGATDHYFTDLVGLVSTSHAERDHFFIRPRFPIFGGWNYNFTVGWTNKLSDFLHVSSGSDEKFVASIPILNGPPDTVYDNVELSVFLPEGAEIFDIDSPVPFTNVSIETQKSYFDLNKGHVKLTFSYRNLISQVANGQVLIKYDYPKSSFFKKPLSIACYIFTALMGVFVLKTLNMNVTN
Assay: Competition Assay
Conditions: pH 7.5; 0 °C
Source text: Competition assay using S. cerevisiae oligosaccharyl transferase (OT)with disaccharide donor Dol-P-P-(GlcNAc)2 and the tripeptide substrate Bz-Asn-Leu-Thr-NHMe.

## O=C(Nc1ccc(C2=NCCN2)cc1)c1ccc(C(=O)Nc2ccc(C3=NCCN3)cc2)c(Cl)c1
  pKi: 5.40

## COc1ccc(NS(=O)(=O)c2ccc(NC(=O)C(CCSC)NC(N)=O)cc2)cc1 (stereo not drawn) [2-(aminocarbonylamino)-N-[4-[(4-methoxyphenyl)sulfamoyl]phenyl]-4-methylsulfanyl-butanamide]
  pKi: 4.47

## COc1ccc(-n2cnnc2SCC(=O)Nc2cc(C)on2)cc1 [2-[[4-(4-methoxyphenyl)-1,2,4-triazol-3-yl]sulfanyl]-N-(5-methyl-1,2-oxazol-3-yl)acetamide]
  pKi: 4.00

## Cc1c2oc3c(C)ccc(C(=O)N[C@@H]4C(=O)N[C@H](C(C)C)C(=O)N5CCC[C@H]5C(=O)N(C)CC(=O)N(C)[C@@H](C(C)C)C(=O)O[C@@H]4C)c3nc-2c(C(=O)N[C@@H]2C(=O)N[C@H](C(C)C)C(=O)N3CCC[C@H]3C(=O)N(C)CC(=O)N(C)[C@@H](C(C)C)C(=O)O[C@@H]2C)c(N)c1=O [2-amino-N,N''-bis[(3R,6S,7R,10S,16S)-3,10-diisopropyl-2,5,9,12,15-pentaketo-7,11,14-trimethyl-8-oxa-1,4,11,14-tetrazabicyclo[14.3.0]nonadecan-6-yl]-3-keto-4,6-dimethyl-phenoxazine-1,9-dicarboxamide] (I: T[dV]P[Sar][NMeV] / II: T[dV]P[Sar][NMeV]; ester I:1-I:C, II:1-II:C; linker I:N-II:N via Actinocin(9to1))
  pKi: 7.39

## COc1ccc(OC)c(Nc2nc(NCCCN(C)C)nc(N)c2[N+](=O)[O-])c1 [3-[[4-amino-6-(2,5-dimethoxyanilino)-5-nitro-pyrimidin-2-yl]amino]propyl-dimethyl-amine]
  pKi: 5.96

## CC[N+](C)(CC)CCCCOc1ccc2c(c1)C(=O)c1cc(OCCCC[N+](C)(CC)CC)ccc1-2 [4-[7-[4-[diethyl(methyl)ammonio]butoxy]-9-keto-fluoren-2-yl]oxybutyl-diethyl-methyl-ammonium;iodide]
  pKi: 5.35

## COC(=O)c1ccc(O)c2nc3c(C=O)c(O)cc(O)c3nc12 [6-formyl-4,7-dihydroxy-9-keto-5H-phenazine-1-carboxylic acid methyl ester]
  pKi: 7.21

## CC(=O)Nc1ccc(NC(=O)c2ccc(Cl)nc2)cc1 [Glycopeptide, 2]
  pKi: 5.60
